From patent US10118915B2, “Kappa opioid ligands” (The Scripps Research Institute, priority 2012, dated 2018)
pIC50: −log10 of the molar value. Where two headings read alike, the source gives them in different places.

Biological target: kappa opioid receptor (OPRK1) (Homo sapiens (Human), UniProt P41145)
Test: OPRK1 antagonist assay (b-arrestin-2-TEV protease / b-lactamase reporter cell line, EC80 challenge of U-50488)
Format: cell-based
[1] = antagonist mode vs EC80 U-50488, read-out: IC50

Sequence of kappa opioid receptor (OPRK1) (P41145 whole entry): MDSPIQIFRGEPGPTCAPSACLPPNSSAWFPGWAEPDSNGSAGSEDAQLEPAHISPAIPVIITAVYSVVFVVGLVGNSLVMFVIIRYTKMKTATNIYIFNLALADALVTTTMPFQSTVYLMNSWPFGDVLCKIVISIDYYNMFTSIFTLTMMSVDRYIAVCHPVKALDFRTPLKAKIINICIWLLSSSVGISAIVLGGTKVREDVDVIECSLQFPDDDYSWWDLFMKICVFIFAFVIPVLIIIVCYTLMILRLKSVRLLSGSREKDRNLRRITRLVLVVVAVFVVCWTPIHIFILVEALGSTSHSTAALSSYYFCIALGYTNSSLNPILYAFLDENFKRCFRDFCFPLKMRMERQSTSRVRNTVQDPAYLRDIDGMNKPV

Structure (SMILES)	pIC50 [1]	pIC50
COC1CN(c2nc3ccccc3cc2C2=NCC(C)O2)CCC1NC1CCCCC1O (centres unmarked) [compound 258]	5.15	–
Cc1nc(-c2cc3cc(F)ccc3nc2N2CCC(NC3CCCCCC3)CC2)no1 [compound 489]	6.21	–
Cc1nc(-c2cc3ccc(F)cc3nc2N2CCC(NC3CCOCC3)CC2)no1 [compound 486]	5.97	–
CCc1noc(-c2cc3cc(C)ccc3nc2N2CC[C@@H](NC3CCCCC3)[C@H](OC)C2)n1 [compound 335]	6.95	–
Cc1ccc2nc(N3C[C@@H]4[C@H](C3)[C@H]4NC3CCOCC3)c(-c3nc(C)no3)cc2c1 [C88]	–	< 5.00
CC(C)c1noc(-c2cc(Br)cnc2N2CCC(NC3CCCCC3)CC2)n1 [C42]	–	< 5.00
Cc1cc(C#N)nc(N2CCC(N[C@@H]3CCCC[C@H]3O)CC2)c1C#N [C11]	< 5.00	–
COC(=O)c1cc(Br)cnc1NC1CCC(NC2CCCCC2)CC1 (centres unmarked) [C20]	–	< 5.00
